Experimental findings from ChEMBL document CHEMBL1158016, “Six new spongian diterpenes from the sponge spongia matamata” (J Nat Prod, 1999) are described below.

In brackets after ≈: the same amount, converted by molar mass.

One series deals with Artemia. Briefly: (§1) Toxicity in brine shrimp. The note with it: in vivo. Type of series: organism-based.
Regarding `CO[C@@H]1OC(=O)C2=C1CC[C@@H]1[C@@]3(C)CCC[C@](C)(C(=O)O)[C@@H]3CC[C@@]21C`, the Activity entry was “Non-toxic”.

Regarding `CO[C@H]1OC(=O)C2=C1[C@]1(C)CC[C@@H]3[C@](C)(CCC[C@]3(C)C(=O)O)[C@H]1CC2`, the Activity result is listed as “Non-toxic”.

`C[C@]12CCC[C@](C)(C(=O)O)[C@@H]1CC[C@@]1(C)C3=C(CC[C@H]21)C(=O)OC3`: the Activity result is recorded as “Non-toxic”.

`C[C@]12CCC[C@](C)(C(=O)O)[C@@H]1CC[C@@]1(C)C3=C(CC[C@H]21)COC3=O`: the Activity result was “Non-toxic”.

In the case of `COC1O[C@H](OC)[C@]2(O)[C@]1(O)CC[C@@H]1[C@@]3(C)CCC[C@](C)(C(=O)O)[C@@H]3CC[C@]12C` (stereo partly specified), the Activity entry is on record as “Non-toxic”.

Tested on in a further series: not listed separately
The description is as §1. It counts as organism-based. As to conditions: artemia, in vivo.
By LC50 is commonly meant the concentration lethal to half of the exposed cells or organisms. Take `C[C@]12CCC[C@](C)(C(=O)O)[C@@H]1CC[C@@]1(C)c3cocc3CC[C@H]21`: the LC50 worked out at 10 µg/mL (≈ 31.6 µM).
